Experimental data from patent publication US12252486B2, “Solid state forms” (Amgen Inc., priority 2019, dated 2025).

What was measured:
KRAS^G12C tumors [1] = details: preclinical analyses, combination; cited from earlier work
KRAS^G12C tumors [2] = details: immune-competent mice; alone as well as in combination with immune-checkpoint inhibitors; cited from earlier work
[3] = clinical trials, first dosing cohorts; cited from earlier work
[4] = solubility assessment during lead optimization; type: physicochemical
Source text: Within the pharmaceutical research and development field, the investigation of a suitable solid-state form represents a crucial step. Investigating a solid-state form comprises several decisions, mainly the investigation of an anhydrous, salt or co-crystal form and the investigation of a polymorph of the respective anhydrous, salt or co-crystal. During a lead optimization program, several properties of research compounds are optimized, typically leading to one or a few candidates that continue into exploratory development programs. Typically, in the assessment and optimization of physical chemical parameters during lead optimization, the main focus is on solubility. […] Beyond the optimization of solubility, further physical chemical parameters, such as (1) melting point, (2) thermal behavior, (3) hygroscopicity, (4) crystal habit, (5) polymorphic behavior or physical stability, (6) impurity profile, and (7) chemical stability of the anhydrous or salt form, must be borne in mind when investigating the salt. The melting point of a drug, either as a free base, acid or salt form, should be higher than a certain threshold to allow processing steps such as drying or tableting. The assessment of thermal behavior, which is typically done by thermogravimetry (TGA) and differential scanning calorimetry (DSC), also includes solid-solid phase transitions. […]

Structure (SMILES)	effect on anti-tumor efficacy of chemotherapy and targeted agents (KRAS^G12C tumors [1])	cures (KRAS^G12C tumors [2])	anti-tumor activity [3]	solubility [4]
C=CC(=O)N1CCN(c2nc(=O)n(-c3c(C)ccnc3C(C)C)c3nc(-c4c(O)cccc4F)c(F)cc23)[C@@H](C)C1 [AMG 510]	improved the anti-tumor efficacy of chemotherapy and targeted agents	durable cures	demonstrated anti-tumor activity	–
C=CC(=O)N1CCN(c2nc(=O)n(-c3c(C)ccnc3C(C)C)c3nc(-c4c(O)cccc4F)c(F)cc23)[C@@H](C)C1 [Compound 1, 6-fluoro-7-(2-fluoro-6-hydroxyphenyl)-1-(4-methyl-2-(2-propanyl)-3-pyridinyl)-4-((2S)-2-methyl-4-(2-propenoyl)-1-piperazinyl)pyrido[2,3-d]pyrimidin-2(1H)-one]	–	–	–	good solubility features
